Test results reported in PubChem BioAssay AID1963850 (Molecular Pharmacology Branch, DTP, NCI, 2024).

Tested on: 192522-019-R-J2-PDC complex tumor spheroid viability
Test: Anticancer human tumor 192522-019-R-J2-PDC patient-derived colon adenocarcinoma cell line growth inhibition [POLQ]
Details: for IC50: curve of first compound; for viability, T/C: stronger effect = lower value
Procedure: Multicellular complex tumor spheroid response to Polymerase (POL) inhibitors (novobiocin, ART-558, RP6685) in combination with a variety of drugs and investigational agents in selected tumor cell lines
The POL inhibitors (novobiocin, ART-558, and RP6685) were evaluated both individually and in combination with standard of care and investigational anticancer small molecules within a complex spheroid model of solid tumors. . Complex spheroids include a stromal component modeled by human endothelial cells (HUVEC) and fibroblasts modeled by human mesenchymal stem cells (MSCs). The concentration ranges selected for each drug and investigational agent were based upon clinically achievable concentrations if the clinical Cmax of the agent was known.
Compounds. The drugs and investigational agents: novobiocin (NSC847541), ART-558 (NSC835418), RP-6685 (NSC848927), peposertib (NSC802822), ceralasertib (NSC780249), elimusertib (NSC800525), camonsertib (NSC841442), AZD-1390 (NSC803789), olaparib (NSC753686), talazoparib (NSC767125), rucaparib (NSC756644), sotorasib (NSC818433), MRTX-1133 (NSC836407), SN-38 (NSC673596), topotecan (NSC609699), epotoside (NSC141540), doxorubicin (NSC123127), gemcitabine (NSC613327), 5-fluorouracil (NSC19893), paclitaxel (NSC125973), vemurafenib (NSC761431), MSA-2 (NSC828583), SN-011 (NSC837082), adavosertib (NSC754352), prexasertib (NSC758257), carboplatin (NSC241240) and oxaliplatin (NSC266046), were obtained from the National Cancer Institute (NCI) Developmental Therapeutics Program Chemical Repository (21). The FDA-approved anticancer drug set is available from the Developmental Therapeutics Program at https://dtp.cancer.gov/organization/dscb/obtaining/. […] The stock solutions were prepared in dimethyl sulfoxide (DMSO, Sigma-Aldrich, St. Louis, MO, cat. D2650), except for the platinum compounds which were prepared in saline (Quality Biological, Gaithersburg, MD, cat. 114-055-101), at 800-fold the tested concentration and stored at -70 degrees C prior to their use. All drugs and investigational agents were tested over a range starting from a high concentration at or near the clinical Cmax and decreasing in half-log increments. If the clinical Cmax for an agent had not been determined, the highest concentration tested was 10 microM, except for SN-38, which was tested at a high concentration of 1 microM.
Cell Culture. All cells were maintained in an incubator at 37 degrees C and 5% CO2 with 95% humidity. The PDC lines were cultured according to standard operating procedures established by the NCI PDMR (https://pdmr.cancer.gov). Table 3 of the manuscript, lists the cell lines along with the number of the three cell types plated to form the mct-spheroids and media for tumor cell growth. After thawing, all PDC lines, except 997537-175-T-J1-PDC and 415267-285-R-J2-PDC, were cultured in Matrigel-coated flasks prepared with a working solution of 1X Ham's F-12 nutrient mix, without supplementation (Thermo Fisher Scientific, cat. 11765054), 100 U/mL penicillin-streptomycin (Thermo Fisher Scientific, cat. 15140122), and 2.5% Matrigel (Corning Inc., Corning, NY, cat. 354248) for the first three passages. The two PDC lines 997537-175-T-J1-PDC and 415267-285-R-J2-PDC were cultured on uncoated flasks. The 857933-349-R-J2-PDC line was cultured in 6C/Colon 1B media containing advanced DMEM/F-12 (Thermo Fisher Scientific, cat. 12634028), 10 mM HEPES (Thermo Fisher Scientific, cat. 15630080), 1X GlutaMAX supplement (Thermo Fisher Scientific, cat. 35050061), 0.1 mg/mL primocin (InvivoGen, San Diego, CA, cat. ant-pm-2), 10% defined fetal bovine serum, heat inactivated (HyClone Laboratories Inc., Logan, UT, cat. SH30070.03HI), 50% L-WRN conditioned media (ATCC, cat. CRL-3276), 1.25 mM N-Acetyl-L-cysteine (Sigma-Aldrich, cat. A9165), 10 mM nicotinamide (Sigma-Aldrich, cat. N0636), 1X B-27 supplement (Thermo Fisher Scientific, cat. 17504044), 1X N-2 supplement (Thermo Fisher Scientific, cat. […]

[1] = second compound 0.0316 µM, first compound 0.0316 µM
[2] = second compound 0.0316 µM, first compound 0.1 µM
[3] = second compound 0.0316 µM, first compound 0.316 µM
[4] = second compound 0.0316 µM, first compound 1 µM
[5] = second compound 0.0316 µM, first compound 3.16 µM
[6] = second compound 0.0316 µM, first compound 10 µM
[7] = second compound 0.1 µM, first compound 0.0316 µM
[8] = second compound 0.1 µM, first compound 0.1 µM
[9] = second compound 0.1 µM, first compound 0.316 µM
[10] = second compound 0.1 µM, first compound 1 µM
[11] = second compound 0.1 µM, first compound 3.16 µM
[12] = second compound 0.1 µM, first compound 10 µM
[13] = second compound 0.316 µM, first compound 0.0316 µM
[14] = second compound 0.316 µM, first compound 0.1 µM
[15] = second compound 0.316 µM, first compound 0.316 µM
[16] = second compound 0.316 µM, first compound 1 µM
[17] = second compound 0.316 µM, first compound 3.16 µM
[18] = second compound 0.316 µM, first compound 10 µM
[19] = second compound 1 µM, first compound 0.0316 µM
[20] = second compound 1 µM, first compound 0.1 µM
[21] = second compound 1 µM, first compound 0.316 µM
[22] = second compound 1 µM, first compound 1 µM
[23] = second compound 1 µM, first compound 3.16 µM
[24] = second compound 1 µM, first compound 10 µM
[25] = second compound 3.16 µM, first compound 0.0316 µM
[26] = second compound 3.16 µM, first compound 0.1 µM
[27] = second compound 3.16 µM, first compound 0.316 µM
[28] = second compound 3.16 µM, first compound 1 µM
[29] = second compound 3.16 µM, first compound 3.16 µM
[30] = second compound 3.16 µM, first compound 10 µM
[31] = second compound 10 µM, first compound 0.0316 µM
[32] = second compound 10 µM, first compound 0.1 µM
[33] = second compound 10 µM, first compound 0.316 µM
[34] = second compound 10 µM, first compound 1 µM
[35] = second compound 10 µM, first compound 3.16 µM
[36] = second compound 10 µM, first compound 10 µM
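Note: spheroids exposed to drugs for seven days before reading.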
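Throughout, for viability, T/C: 100% = DMSO vehicle control viability in luminescence.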

CC1COCCN1c1cc(C2(O)CC3CCC(C2)O3)c2cnn(-c3ccn[nH]3)c2n1 (centres undefined) + Nc1ccc(C#CCN(C(=O)Cc2ncc(C(F)(F)F)cc2C(F)(F)F)c2ccc(F)cc2)nn1
IC50 (second compound 0.0316 µM): 259 nM | IC50 (second compound 0.1 µM): 265 nM | IC50 (second compound 0.316 µM): 263 nM | IC50 (second compound 1 µM): 276 nM | IC50 (second compound 3.16 µM): 331 nM | IC50 (second compound 10 µM): 284 nM | viability, T/C [1]: 95.5% | viability, T/C [2]: 76.8% | viability, T/C [3]: 44.7% | viability, T/C [4]: 34.4% | viability, T/C [5]: 44% | viability, T/C [6]: 50.1% | viability, T/C [7]: 99.2% | viability, T/C [8]: 85.3% | viability, T/C [9]: 42.2% | viability, T/C [10]: 37.6% | viability, T/C [11]: 41.3% | viability, T/C [12]: 53% | viability, T/C [13]: 97.2% | viability, T/C [14]: 80.5% | viability, T/C [15]: 44.3% | viability, T/C [16]: 35.8% | viability, T/C [17]: 44.7% | viability, T/C [18]: 48.6% | viability, T/C [19]: 97.1% | viability, T/C [20]: 81.8% | viability, T/C [21]: 45.9% | viability, T/C [22]: 36.9% | viability, T/C [23]: 45.1% | viability, T/C [24]: 51.8% | viability, T/C [25]: 97.6% | viability, T/C [26]: 82.3% | viability, T/C [27]: 51.2% | viability, T/C [28]: 36.6% | viability, T/C [29]: 46.6% | viability, T/C [30]: 49.6% | viability, T/C [31]: 92.4% | viability, T/C [32]: 74.8% | viability, T/C [33]: 47.8% | viability, T/C [34]: 36.4% | viability, T/C [35]: 51.9% | viability, T/C [36]: 50%

COc1cc2cc(C(=O)CCC(=O)O)sc2cc1OC + Nc1ccc(C#CCN(C(=O)Cc2ncc(C(F)(F)F)cc2C(F)(F)F)c2ccc(F)cc2)nn1
IC50 (second compound 0.0316 µM): > 10000 nM | IC50 (second compound 0.1 µM): > 10000 nM | IC50 (second compound 0.316 µM): > 10000 nM | IC50 (second compound 1 µM): > 10000 nM | IC50 (second compound 3.16 µM): > 10000 nM | IC50 (second compound 10 µM): > 10000 nM | viability, T/C [1]: 102% | viability, T/C [2]: 105% | viability, T/C [3]: 95.4% | viability, T/C [4]: 99.6% | viability, T/C [5]: 105% | viability, T/C [6]: 89% | viability, T/C [7]: 102% | viability, T/C [8]: 92.1% | viability, T/C [9]: 97.9% | viability, T/C [10]: 101% | viability, T/C [11]: 99.4% | viability, T/C [12]: 87.3% | viability, T/C [13]: 102% | viability, T/C [14]: 102% | viability, T/C [15]: 105% | viability, T/C [16]: 100% | viability, T/C [17]: 93.8% | viability, T/C [18]: 91.8% | viability, T/C [19]: 102% | viability, T/C [20]: 98.5% | viability, T/C [21]: 100% | viability, T/C [22]: 98.8% | viability, T/C [23]: 104% | viability, T/C [24]: 103% | viability, T/C [25]: 103% | viability, T/C [26]: 103% | viability, T/C [27]: 104% | viability, T/C [28]: 93.3% | viability, T/C [29]: 103% | viability, T/C [30]: 103% | viability, T/C [31]: 109% | viability, T/C [32]: 97.4% | viability, T/C [33]: 108% | viability, T/C [34]: 103% | viability, T/C [35]: 114% | viability, T/C [36]: 102%
